According to publication PMC5842390, “Protection Efficacy of C5A Against Vaginal and Rectal HIV Challenges in Humanized Mice” (The Open Virology Journal, 2018):
Where two headings read alike, the source gives them in different places. Ends that are not written are not given here.

Experiments:
[1] = test system: HSV; details: Vero cells, human dendritic cells, primary genital epithelial cells in vitro, human epidermis ex vivo; cited from earlier work
Excerpt: Previous studies have shown that C5A inhibits HSV infection of Vero cells, human dendritic cells and primary genital epithelial cells in vitro as well as human epidermis (epidermal sheets) ex vivo, and that it inhibits acyclovir- and ganciclovir-resistant HSV isolates. Remarkably, in an in vitro transwell assay, C5A prevented HIV transmigration by preserving the integrity of the genital epithelium that ...

[2] = test system: simian-human immunodeficiency virus (SHIV-162P3); details: vaginal application of C5A; ref 58 (b36 prints ref 57); cited from earlier work
Excerpt: In the absence of a safe and effective vaccine, there is an imperative demand for effective agents to reduce the 7,000 new HIV infections occurring every day. An attractive possibility is to identify the best drugs and drug combinations, delivered by optimal nBP methods such Intravaginal Rings (IVRs) for vaginal delivery and gels or enemas for rectal protection. We previously reported that C5A, a short, amphipathic, 18 amino acid (SWLRDIWDWICEVLSDFK) helical peptide, inhibits in vitro infectivity of a broad range of primary HIV isolates in various primary target cells. In this study, we ... || Following these studies with unformulated C5A solutions applied topically, the next goal is to formulate C5A, alone and in combination with other antiretroviral agents, into murine intravaginal rings to evaluate sustained topical delivery approaches for protection against vaginal and rectal HIV challenges. We plan on using a combination of drugs with distinct mechanisms of action.

[3] = test system: cervical epithelial cells; details: at a concentration of 10- to 100-fold greater than that which blocks HIV infection; cited from earlier work
Excerpt: The short amphipathic helical peptide SWLRDIWDWICEVLSDFK called C5A, was originally identified by the Chisari lab as an active anti-hepatitis C virus (HCV) agent. The C5A amino acid sequence encompasses the region that permits the anchoring of the HCV nonstructural protein 5A (NS5A) into the ER membrane by an in-plane amphipathic alpha-helix (Fig. 1).

[4] = macaques vaginally treated with repeated C5A applications; cited from earlier work
Excerpt: Following these studies with unformulated C5A solutions applied topically, the next goal is to formulate C5A, alone and in combination with other antiretroviral agents, into murine intravaginal rings to evaluate sustained topical delivery approaches for protection against vaginal and rectal HIV challenges. We plan on using a combination of drugs with distinct mechanisms of action.

[5] = test system: HIV; details: cited from earlier work
Excerpt: (§1) In the absence of a safe and effective vaccine, there is an imperative demand for effective agents to reduce the 7,000 new HIV infections occurring every day. An attractive possibility is to identify the best drugs and drug combinations, delivered by optimal nBP methods such Intravaginal Rings (IVRs) for vaginal delivery and gels or enemas for rectal protection. We previously reported that C5A, a short, amphipathic, 18 amino acid (SWLRDIWDWICEVLSDFK) helical peptide, inhibits in vitro infectivity of a broad range of primary HIV isolates in various primary target cells. In this study, we ...

[6] = seminal plasma, cervical and vaginal fluids; cited from earlier work
Excerpt: as §1

[7] = test system: HIV JR-CSF; type: in vivo, humanized BLT mice; details: for Slope parameter (m) of median-effect plot: median-effect model, analogous to Hill coefficient; for EC50: sigmoidal dose-response (variable slope) model, 6.25-200 µM, n=10 per concentration
Excerpt: Humanized BLT mice were created as described previously, by implanting 1-mm^3 pieces of human fetal liver and thymus tissues (Advanced Bioscience Resources) under the kidney capsule of 6- to 8-week-old female NSG mice (Jackson Laboratories) bred at The Scripps Research Institute (TSRI). Each cohort was produced with tissues from a single donor. CD34+ hematopoietic stem and progenitor cells (HSPC) were purified from autologous fetal liver tissue, isolated by magnetic bead selection for CD34+ cells (Miltenyi), phenotyped by flow cytometry, and cryopreserved until injection (200,000-350,000 CD34+ cells) into mice 3 weeks after fetal liver and thymus tissue implantation. Human cell population reconstitution in peripheral blood was confirmed by flow cytometry as described previously. Briefly, the degree of humanization of the BLT mice was evaluated at 20 weeks of age (10 weeks post-CD34+ HSPC injection) by analysis of percentages of human CD45+ cells and human CD45+ CD4+ CD3+ cells in peripheral blood by FACS. Mice with <65% human CD45+ cells and <70% human CD45+ CD4+ CD3+ cells were not used for HIV exposure experiments. Mice were kept at the Department of Animal Resources at TSRI in accordance with protocols approved by the TSRI Institutional Animal Care and Use Committee.
Solutions of C5A peptides were prepared in phosphate buffered saline (PBS). After verifying the reconstitution of mice with human cells, a dose ranging study was conducted to determine the EC50 of C5A for preventing vaginal and rectal HIV infection. Stocks of HIV JR-CSF were prepared as previously described and standardized by p24 ELISA. Prior to inoculation, mice were anesthetized with isoflurane. Aliquots of C5A in PBS (5 µL) were administered vaginally or rectally in decreasing concentrations (200, 100, 50, 25, 12.5 and 6.25 µM; n=10 mice per concentration). Fifteen minutes post-C5A topical administration, mice were challenged (vaginal challenge for vaginal C5A administration, rectal challenge for C5A rectal administration) with HIV.
Infection of BLT mice was analyzed by quantifying HIV RNA levels in peripheral blood (plasma) using one-step reverse transcriptase quantitative real-time PCR (ABI custom TaqMan Assays-by-Design) according to the manufacturer’s instructions. Primers were 5-[…]-3 and 5-TGCTTGATGT CCCCCCACT-3, and MGB-probe 5-FAM-[…]-Q-3, where FAM is 6-carboxyfluorescein [36-38, 40, 42, 44-47, 52-54]. The assay sensitivity was of […] 400 RNA copies per mL.
Data were analyzed using GraphPad Prism (version 7.00, GraphPad Software, Inc., La Jolla, CA). Analytic simulations of dose-response curves using the median-effect principle and mass-action law, and its combination index theorem were carried out using CompuSyn.

Question: For SWLRDIWDWICEVLSDFK [C5A], which “Inhibition of HSV infection” value [1] is on record?
Answer: The value was “efficiently inhibits”.

Question: And the “Macaques protected from SHIV-162P3 challenge” value [2]?
Answer: Its value is 89%.

Question: What about the “Toxicity to cervical epithelial cells” value [3] of the same sequence?
Answer: Its value is “not toxic”.

Question: What about the “Signs of lesions or inflammation” value [4] of the same sequence?
Answer: The value was “no signs of lesions or inflammation”.

Question: What about the “Antiviral activity between pH 5 and 7” value ([5]; pH 5 to 7) of the same sequence?
Answer: The value was “keeps is antiviral activity”.

Question: What about the “Antiviral activity at pH 8” value ([5]; pH 8) of the same sequence?
Answer: Its value is “loses its activity”.

Question: What about the “Protection against a vaginal challenge of HIV” value ([5]; topical vaginal administration of 200 µM C5A in PBS, humanized mice) of the same sequence?
Answer: The value was 100%.

Question: And the “Antiviral activities in genital fluids” value [6]?
Answer: Its value is “maintains its antiviral activities”.

Question: And the “Slope parameter (m) of median-effect plot” value ([7]; rectal compartment)?
Answer: The value was 7.7 ± 1.2.

Question: What about the EC50 ([7]; rectal dosing, read-out: EC50 for protection against rectal HIV challenge) of the same sequence?
Answer: The EC50 was 25.7 µM.

Question: What about the “Slope parameter (m) of median-effect plot” value ([7]; vaginal compartment) of the same sequence?
Answer: Its value is 7.6 ± 1.2.

Question: What about the EC50 ([7]; vaginal dosing, read-out: EC50 for protection against vaginal HIV challenge) of the same sequence?
Answer: Its EC50 is 32.5 µM.
